Consider 77 sequences from the supplement of paper PMC2824726.

The test system of the data set is MDA-MB-231. Kind of data set: shRNA barcode abundance ratio t_end/t_zero (depletion over 4 weeks of proliferation) (log2 ratio); higher = less depletion (weaker anti-proliferative effect of the shRNA). To be noted: time after t zero 28 days. Here is the method: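 Pooled lentiviral negative-selection screen of 305 pGIPZ shRNAs (Open Biosystems V2LHS clones; the 21-nt half-hairpin sense stem is embedded in a mir-30 scaffold) in MDA-MB-231 breast carcinoma cells, infected at MOI 0.3 with 0.5 ug/ml puromycin selection. Barcode abundance was read on barcode tiling microarrays (six 25-nt probes per 60-nt barcode) at t_zero (5 days post-infection) and t_end (33 days; 28 days of culture after t_zero). Values are median-normalised t_end/t_zero signal ratios, averaged over the tiling probes that passed a 10-fold background filter, from three biological replicates.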

Values joined by “and” are separate entries in the source; they are usually repeats but may differ in a detail not shown here. Identical values can stand only once.

Turning to “TCCAATTAACTTCTCCATAAT (targeted gene: MTL5)”, the “shRNA barcode abundance ratio t end/t zero (log2)” value stood at 0.712.
With “GGTAGCAATTGCCTGAATAAT (targeted gene: IL7)”, the “shRNA barcode abundance ratio t end/t zero (log2)” value was -0.149.
Take “ACGCTCTGTGGCCAGTGTAAA (targeted gene: SULF2)”: the “shRNA barcode abundance ratio t end/t zero (log2)” value stood at 0.249.
For the sequence “GGCATCAGATGAATTGTTAAT (targeted gene: IL3)”, the “shRNA barcode abundance ratio t end/t zero (log2)” value was 0.161.
On to “GCACTTGCCTTTAAACTATGT (targeted gene: NFIA)”, for which the “shRNA barcode abundance ratio t end/t zero (log2)” value came to 0.384.
As for “GGCTACTATGACCAATAGAAG (targeted gene: BFAR)”, the “shRNA barcode abundance ratio t end/t zero (log2)” value amounted to 0.107.
“GCACCTAGTGTCCAGATTCAT (targeted gene: HDAC3)”: the “shRNA barcode abundance ratio t end/t zero (log2)” value was 0.129.
For “GCGCGAGTTCGCTTCTAATAT (targeted gene: GSX1)”, the “shRNA barcode abundance ratio t end/t zero (log2)” value came to 0.174.
Turning to “CCACGCGACATCCAATCCATA (targeted gene: IL3)”, the “shRNA barcode abundance ratio t end/t zero (log2)” value was -0.0678.
Consider “GCAGCTTCAGGTTTACTCAAA (targeted gene: CD28)”, for which the “shRNA barcode abundance ratio t end/t zero (log2)” value worked out at 0.127.
For the sequence “CCTTTCTCCAAACCCTCTTAA (targeted gene: BIRC2)”, the “shRNA barcode abundance ratio t end/t zero (log2)” value was found to be 0.28.
In the case of “CCTGACCTCCCTCTAATTTAT (targeted gene: IL10)”, the “shRNA barcode abundance ratio t end/t zero (log2)” value turned out to be 0.309.
With “CCAGCGATGAAGAATGTGGAA (targeted gene: CFLAR)” the figure was -0.0627.
As for “GCTCTTCATCAGGAGAAATAA (targeted gene: OPA1)”, the “shRNA barcode abundance ratio t end/t zero (log2)” value is 0.0963.
For “GCATCAGATGATTTGTCATTA (targeted gene: BIRC2)”, the “shRNA barcode abundance ratio t end/t zero (log2)” value was 0.0467 and 0.133.
As to “GGACATCTAGTCACTTGTAAA (targeted gene: XIAP)”, the “shRNA barcode abundance ratio t end/t zero (log2)” value stood at 0.00436.
In the case of “GCAATTGAGAGCATTCTTAAA (targeted gene: IL3)”, the “shRNA barcode abundance ratio t end/t zero (log2)” value was -0.0688.
As for “GGAGAGAACTGTCATTTCTAA (targeted gene: IGF1R)”, the “shRNA barcode abundance ratio t end/t zero (log2)” value came to 0.393.
For “CCTTTGAACTTGATTGCCTAT (targeted gene: SFRP1)”, the “shRNA barcode abundance ratio t end/t zero (log2)” value was -0.127.
In the case of “GCTGAAGTACAGGACAATTAT (targeted gene: TAX1BP1)”, the “shRNA barcode abundance ratio t end/t zero (log2)” value worked out at 0.181.
In the case of “TCTCTTAAAGTTGATATCTTA (targeted gene: TNFAIP3)”, the “shRNA barcode abundance ratio t end/t zero (log2)” value is 0.213.
In the case of “GCTCTGTACTTCAACCCAATT (targeted gene: BFAR)”, the “shRNA barcode abundance ratio t end/t zero (log2)” value is 0.0174.
Regarding “GCATGTAATAGAGTGTGCTAA (targeted gene: MSH2)”, the “shRNA barcode abundance ratio t end/t zero (log2)” value turned out to be 1.01.
Regarding “CCAACCACTTCATTCTTGAAA (targeted gene: IL10)”, the “shRNA barcode abundance ratio t end/t zero (log2)” value is 0.022 and 0.0479.
Consider “GCTGGCAATTACCAGAACAAT (targeted gene: WRN)”, for which the “shRNA barcode abundance ratio t end/t zero (log2)” value amounted to 0.0875.
As for “CCTTTGAAAGTGGGTGGAATT (targeted gene: TNFAIP3)”, the figure is 0.0769; as for “CCTCATGTCTTGATAAGTTAA (targeted gene: FOXO1)”, 0.0815; as for “GCAAATGGAATCTTTATGAAA (targeted gene: MALT1)”, 0.375.
Take “ACTCTAATCTCCACATTTATA (targeted gene: XIAP)”: the “shRNA barcode abundance ratio t end/t zero (log2)” value worked out at 0.0933.
With “CCATGTAATGGCAGTTATATT (targeted gene: HMGB1)”, the “shRNA barcode abundance ratio t end/t zero (log2)” value amounted to 0.175.
With “GCTAAGAGATTCGCCTTAAAT (targeted gene: SOCS3)” the figure was 0.308; with “GCACCTTGTTGTCATGAACTT (targeted gene: DAD1)”, 0.0822 and 0.0853; with “GCTCAACAGATCCAATTTCAT (targeted gene: RBKS)”, -0.0517.
Turning to “CCAAATTATGTGTTTCCGAAA (targeted gene: IGF1R)”, the “shRNA barcode abundance ratio t end/t zero (log2)” value is 0.502.
“CGTTATTAACTTGTTATTTAG (targeted gene: API5)”: the “shRNA barcode abundance ratio t end/t zero (log2)” value was found to be 0.468.
Take “GCAGGTATTTGACATATTAAA (targeted gene: NFKB1)”: the “shRNA barcode abundance ratio t end/t zero (log2)” value came out at 0.38.
For the sequence “GCGAAGAACCTTGTGTGACAA (targeted gene: BCL2)”, the “shRNA barcode abundance ratio t end/t zero (log2)” value was -0.0784.
“GCCTACTTTCACACTAAGAAA (targeted gene: CASP8)”: the “shRNA barcode abundance ratio t end/t zero (log2)” value was -0.242.
As for “CCTTGCTGTTGTGAAATCTAT (targeted gene: ANXA5)”, the figure is -0.252.
In the case of “GGACATGACAACTCATCTCAT (targeted gene: IL6)”, the “shRNA barcode abundance ratio t end/t zero (log2)” value amounted to 0.175.
For “CCCGGGACTCCTGAGAACAAT (targeted gene: PRLR)”, the “shRNA barcode abundance ratio t end/t zero (log2)” value is -0.387.
“ACTTACACTTAGAAATTAAAT (targeted gene: XIAP)”: the “shRNA barcode abundance ratio t end/t zero (log2)” value came out at 0.473.
As for “CCTTAAATCCTCATTGCAAAT (targeted gene: USP9X)”, the figure is -0.782; as for “GCAGAAGCTCTCCAAATTGAA (targeted gene: APAF1)”, 0.521; as for “CCAGAGGCTTCCACTTAATAT (targeted gene: APAF1)”, 0.0519.
In the case of “CCTGCAAACCTTATCCTCTAT (targeted gene: MAPK8IP2)”, the “shRNA barcode abundance ratio t end/t zero (log2)” value was determined as 0.442.
With “GCCTACAGCTGCCTCCTAGAA (targeted gene: ANXA4)”, the “shRNA barcode abundance ratio t end/t zero (log2)” value amounted to 0.417.
Turning to “GGACTCTAGAATGTCCATATT (targeted gene: NUAK2)”, the “shRNA barcode abundance ratio t end/t zero (log2)” value is 0.326.
Regarding “GCTATCTCTCCTGAAGCAATA (targeted gene: BCL2A1)”, the “shRNA barcode abundance ratio t end/t zero (log2)” value amounted to 0.264.
Consider “GGGTAGAAATTGGCTTCATAA (targeted gene: WRN)”, for which the “shRNA barcode abundance ratio t end/t zero (log2)” value is -0.246.
Regarding “ACGCTGATCGAGAATGGAGAA (targeted gene: NUP62)”, the “shRNA barcode abundance ratio t end/t zero (log2)” value is -0.334.
With “GCTGCCAAACTTCAGATAATA (targeted gene: NT5C3)”, the “shRNA barcode abundance ratio t end/t zero (log2)” value turned out to be 0.163.
Take “CGACTTAGACTTGACCTATAT (targeted gene: PTEN)”: the “shRNA barcode abundance ratio t end/t zero (log2)” value was -0.304.
As to “CCGCCTCTTTGACCAGTTCTT (targeted gene: CRYAB, Cryab)”, the “shRNA barcode abundance ratio t end/t zero (log2)” value was determined as 0.00542.
Regarding “GGACAGTGCTTGATACAGGAA (targeted gene: PIM1)”, the “shRNA barcode abundance ratio t end/t zero (log2)” value was 0.128.
Take “GGATTCTCAACACTTTGAATT (targeted gene: ANXA4)”: the “shRNA barcode abundance ratio t end/t zero (log2)” value worked out at 0.244.
On to “GGTGACTATACAGTCATTTAA (targeted gene: ATM)”, for which the “shRNA barcode abundance ratio t end/t zero (log2)” value is -0.167.
Consider “CCGAATCCGCATGACTCATAA (targeted gene: HDAC1)”, for which the “shRNA barcode abundance ratio t end/t zero (log2)” value amounted to 1.63.
Turning to “CCTCCGTCCCTCCTACCATAA (targeted gene: MYBL2)”, the “shRNA barcode abundance ratio t end/t zero (log2)” value is 0.0727.
On to “GCGTCGTTAATTTATTTCTTA (targeted gene: IER3)”, for which the “shRNA barcode abundance ratio t end/t zero (log2)” value was 0.159.
Consider “CCTCCCTCTCAGAACCAATAA (targeted gene: DDAH2)”, for which the “shRNA barcode abundance ratio t end/t zero (log2)” value was -0.269.
As for “CGCAGATAGGAGTAGTCTTTA (targeted gene: NFIA)”, the “shRNA barcode abundance ratio t end/t zero (log2)” value was 0.432.
For the sequence “GATCCTAAGATGTGTTCTTAT (targeted gene: CYP1B1)”, the “shRNA barcode abundance ratio t end/t zero (log2)” value is 0.664.
As to “CGGAGAGTTATCCTGATAAAT (targeted gene: SFRP1)”, the “shRNA barcode abundance ratio t end/t zero (log2)” value was -0.114.
As for “CCTTGGAAAGGATGAACAAAT (targeted gene: TOPORS)”, the “shRNA barcode abundance ratio t end/t zero (log2)” value came to 0.154.
With “TCAAATTGCGGCACATGTCAT (targeted gene: CD40LG)” the figure was -0.0903; with “CCAATTCAAGTGATCCGCAAA (targeted gene: BAG3)”, 0.175.
With “CCAACACGTTTGAACTGAAAT (targeted gene: BIRC3)”, the “shRNA barcode abundance ratio t end/t zero (log2)” value was found to be 0.578.
Regarding “CCACAGATGTTCATAGACAAT (targeted gene: NFKB1)”, the “shRNA barcode abundance ratio t end/t zero (log2)” value came to 0.547.
Take “GCCGAAGATTTCACAGTCAAA (targeted gene: IGF1R)”: the “shRNA barcode abundance ratio t end/t zero (log2)” value worked out at 0.225.
As for “CCAACTAATCTTCGAATCGAA (targeted gene: SOCS2)”, the figure is 0.157.
With “GCAAGCAGTCTTGTGAGTTAA (targeted gene: RASA1)” the figure was -0.169 and -0.167; with “GAGGATTATGGCTAACAAGAA (targeted gene: MCL1)”, 0.27.
As for “GCCAATATTGTGTTTGGATAT (targeted gene: MALT1)”, the figure is 0.354; as for “GGTGAAGATATATTCCTCCAA (targeted gene: PTEN)”, 0.129; as for “GGCTACAGCCTCGATTTATAT (targeted gene: IGFBP3)”, 0.0568.
As for “CCTCACTTTCTCCAAGAAGTT (targeted gene: MAPK8IP2)”, the “shRNA barcode abundance ratio t end/t zero (log2)” value came out at 0.0658.
